These results are taken from US5939583A, “Substituted 4-biphenyl-4-hydroxybutyric acid derivatives as matrix metalloprotease inhibitors” (Bayer Corporation, priority 1997, dated 1999).

Series [1] deals with T1, Recombinant Human CHO Stromelysin (MMP-3) (Homo sapiens, UniProt P08254).
T1 construct: made in house; host or cells: CHO
In kind it is biochemical. To be noted: P218 6 μM, pH 6.5, 25 min, 37° C. From the text: The reaction was stopped by addition of soybean trypsin inhibitor (SBTI; 5:1 w/w to trypsin concentration).
(§1) MMP Microfluorometric Profiling Assay.

Series [2] concerns the target T2, Human recombinant gelatinase B (MMP-9) (Homo sapiens, UniProt P14780).
T2 construct: made in house; host or cells: baculovirus protein expression system
It counts as biochemical. To be noted: P218 6 μM, pH 6.5, 25 min, 37° C.
Text: P218 Fluorogenic Substrate
as §1

For series [3], the target named is T3, Human Recombinant gelatinase A (MMP-2) (Homo sapiens, UniProt P08253).
T3 sequence (P08253 110-660): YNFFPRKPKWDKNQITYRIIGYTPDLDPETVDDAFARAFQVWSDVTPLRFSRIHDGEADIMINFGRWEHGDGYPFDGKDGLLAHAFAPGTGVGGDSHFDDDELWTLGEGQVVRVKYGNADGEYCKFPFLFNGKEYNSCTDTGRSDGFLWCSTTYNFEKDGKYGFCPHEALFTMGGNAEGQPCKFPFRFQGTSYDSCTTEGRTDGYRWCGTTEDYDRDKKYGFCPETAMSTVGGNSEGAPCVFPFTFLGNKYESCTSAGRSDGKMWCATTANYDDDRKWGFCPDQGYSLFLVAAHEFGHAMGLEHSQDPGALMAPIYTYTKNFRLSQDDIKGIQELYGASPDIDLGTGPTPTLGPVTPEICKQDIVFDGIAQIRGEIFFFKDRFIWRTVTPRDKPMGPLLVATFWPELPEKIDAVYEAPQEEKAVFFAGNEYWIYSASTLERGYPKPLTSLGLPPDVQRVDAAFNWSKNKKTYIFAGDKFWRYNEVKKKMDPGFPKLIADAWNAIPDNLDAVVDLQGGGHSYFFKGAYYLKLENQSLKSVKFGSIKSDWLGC
In kind it is biochemical. To be noted: P218 6 μM, pH 6.5, 25 min, 37° C.

Series [4] has as its system human ovarian carcinoma xenografts. The following applies: mice bearing human ovarian carcinoma xenografts; cited from earlier work. (In general: In xenograft studies the graft and the host belong to different species.)
In the next series the test system is MMP-3. To be noted: WO 9615096 examples; cited from earlier work.
Series [5] is described as follows: Stability of hydroxy acids as solids and in aged solutions (spontaneous lactonization). In kind it is physicochemical. To be noted: for stability as solids: purified crystalline hydroxy acids. From the text:
This was evidenced by the chemical shift of H-4 on the 4S lactone at δ5.40 ppm and that on the 4R lactone at δ5.65 ppm. The hydroxy acid that converted to the 2S, 4R lactone was thus identified as the 2S, 4R hydroxy acid (Example 1) and that which converted to the 2S, 4S lactone was identified as the 2S, 4S hydroxy acid (Example 2).

T1 sequence (P08254 100-477): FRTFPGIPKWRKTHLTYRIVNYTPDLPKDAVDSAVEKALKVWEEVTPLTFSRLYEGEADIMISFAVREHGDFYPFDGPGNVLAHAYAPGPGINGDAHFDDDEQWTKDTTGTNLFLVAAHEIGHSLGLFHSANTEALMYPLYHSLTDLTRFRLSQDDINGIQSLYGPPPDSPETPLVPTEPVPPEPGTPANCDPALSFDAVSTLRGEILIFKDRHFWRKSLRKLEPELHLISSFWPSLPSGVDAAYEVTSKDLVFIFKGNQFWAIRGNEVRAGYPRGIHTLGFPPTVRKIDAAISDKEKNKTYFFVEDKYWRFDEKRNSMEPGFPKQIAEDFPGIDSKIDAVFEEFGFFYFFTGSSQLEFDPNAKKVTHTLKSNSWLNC
T2 sequence (P14780 107-707 limits assumed): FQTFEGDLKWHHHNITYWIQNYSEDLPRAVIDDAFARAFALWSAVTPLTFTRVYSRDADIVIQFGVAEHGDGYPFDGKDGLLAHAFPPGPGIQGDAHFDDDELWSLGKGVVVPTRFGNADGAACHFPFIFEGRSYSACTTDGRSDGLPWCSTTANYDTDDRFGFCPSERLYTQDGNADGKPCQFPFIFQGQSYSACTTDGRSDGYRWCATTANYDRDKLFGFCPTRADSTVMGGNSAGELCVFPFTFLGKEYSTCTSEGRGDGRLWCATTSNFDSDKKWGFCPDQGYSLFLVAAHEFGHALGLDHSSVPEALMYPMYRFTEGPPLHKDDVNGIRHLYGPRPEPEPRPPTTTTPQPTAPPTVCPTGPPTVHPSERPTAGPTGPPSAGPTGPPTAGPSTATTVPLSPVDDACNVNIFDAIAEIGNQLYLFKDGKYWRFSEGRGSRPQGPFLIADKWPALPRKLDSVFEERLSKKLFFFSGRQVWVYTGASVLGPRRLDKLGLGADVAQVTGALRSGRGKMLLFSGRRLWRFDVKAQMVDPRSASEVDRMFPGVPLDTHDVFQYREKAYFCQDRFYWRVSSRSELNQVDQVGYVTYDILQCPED

As to `O=C(C[C@H](CSc1ccc(O)cc1)C(=O)O)c1ccc(-c2ccc(Cl)cc2)cc1`, the results for the concentration for half-maximal inhibition (IC50) in series [1], in series [2] and in series [3] were 0.155 µM, 0.115 µM and 0.003 µM, respectively.

Regarding `CNC(=O)[C@H](Cc1ccccc1)NC(=O)[C@H](CC(C)C)[C@H](CSc1cccs1)C(=O)NO` [batimastat], in series [4], the survival result was “prolongs the survival”.

With `O=C(O)[C@@H](CSc1ccccc1)C[C@@H](O)c1ccc(-c2ccc(Cl)cc2)cc1` [drawing 35], the IC50 (usually the point on the concentration scale where inhibition reaches its midpoint) is 0.034 µM in series [1], 0.058 µM in series [2] and 0.0028 µM in series [3].

In the case of `CC(C)CC(CC(O)c1ccc(-c2ccc(Cl)cc2)cc1)C(=O)O` (single isomer, unassigned) [Example 33], the “potency as MMP-3 inhibitors relative to corresponding 4-biphenyl-4-oxobutyric acid derivatives” value in the series with MMP-3 was “less potent”.

Consider `O=C(O)[C@@H](CSc1ccccc1)C[C@H](O)c1ccc(-c2ccc(Cl)cc2)cc1` [Example 2, [2S, 4S]-4-[4-(4-chlorophenyl)phenyl]-4-hydroxy-2-(phenylthiomethyl)butanoic acid], for which, in series [5], the “spontaneous lactonization in aged solutions” value is “slowly showed one or other of the lactones as a result of spontaneous lactonization” and the stability as solids result is “relatively stable as solids”.

For the compound `O=C(C[C@H](CSc1ccccc1)C(=O)O)c1ccc(-c2ccc(Cl)cc2)cc1`, the results for the IC50 in series [2] and in series [3] were 0.492 µM and 0.02 µM, respectively.

With `O=C(C[C@H](CCCc1ccccc1)C(=O)O)c1ccc(-c2ccc(Cl)cc2)cc1`, the IC50 in series [1] was 0.108 µM; in series [2] it was 0.209 µM; in series [3], 0.034 µM.

Take `O=C(O)[C@@H](CSc1ccccc1)C[C@@H](O)c1ccc(-c2ccc(Cl)cc2)cc1` [Example 1, [2S, 4R]-4-[4-(4-chlorophenyl)phenyl]-4R-hydroxy-2-(phenylthiomethyl)butanoic acid]: in series [5], the “spontaneous lactonization in aged solutions” value is listed as “slowly showed one or other of the lactones as a result of spontaneous lactonization” and the stability as solids result is on record as “relatively stable as solids”.

`O=C(O)[C@@H](CCCc1ccccc1)CC(O)c1ccc(-c2ccc(Cl)cc2)cc1` (single isomer, unassigned) [drawing 39]: the IC50 in series [1] turned out to be 1.2 µM; in series [2], 0.369 µM; in series [3], 0.046 µM.

Turning to `O=C(O)[C@@H](CSc1ccccc1)C[C@H](O)c1ccc(-c2ccc(Cl)cc2)cc1` [drawing 36], the IC50 in series [1] was 1.55 µM; in series [2] it was 0.89 µM; in series [3], 0.062 µM.

With `O=C(O)[C@@H](CCCc1ccccc1)CC(O)c1ccc(-c2ccc(Cl)cc2)cc1` (single isomer, unassigned) [drawing 38], the figures for the IC50 in series [1], in series [2] and in series [3] were 0.05 µM, 0.082 µM and 0.0094 µM, respectively.

`CC(C)CC(CC(O)c1ccc(-c2ccc(Cl)cc2)cc1)C(=O)O` (single isomer, unassigned) [Example 34]: the “potency as MMP-3 inhibitors relative to corresponding 4-biphenyl-4-oxobutyric acid derivatives” value with MMP-3 is “less potent”.
